Reference: patent US10335392B2, “Cyclic compounds useful as modulators of TNF α” (BRISTOL-MYERS SQUIBB COMPANY, priority 2015, dated 2019)
pIC50: −log10 of the molar value.

These compounds were tested against TNFα (Homo sapiens (Human), UniProt P01375) (assay: TNF induced HEK-Blue assay). Conditions: TNFα 0.5 ng/ml; HEK-Blue-CD40L cells, NF-kB-driven secreted alkaline phosphatase reporter; 18 h.
Type: cell-based
Procedure: TNF or CD40L-Induced HEK-Blue Assay
Test compounds serially diluted in DMSO were plated in an assay plate (LABCYTE, Cat. # LP-0200) at final concentrations ranging from 0.004 μM to 25 μM. TNFα (final concentration 0.5 ng/ml) or CD40L (final concentration 30 ng/ml) in assay buffer [DMEM, 4.5 g/l glucose (Gibco, Cat. 21063-029), 10% FBS (Sigma, F4135), 1% Penicillin-Streptomycin (Gibco, Cat. 15140-122), 1% Anti-Anti (Gibco, Cat. 15240-112) and 2 mM L-glutamine (Gibco, Cat. 25030-081)] was then added to the assay plate. After a 30 minute pre-incubation at 37° C. and 5% CO2, HEK-Blue™-CD40L cells (INVIVOGEN, Cat. Code hkb-cd40) containing a NF-kB-driven secreted alkaline phosphatase reporter gene were seeded into the assay plate at a density of 20,000 cells per well. This plate was then incubated for 18 h at 37° C. and 5% CO2. Secreted alkaline phosphatase expression was measured using QUANTI-Blue™ (INVIVOGEN, Cat. Code rep-qb1) according to manufacturer's specifications and the assay plate was read on a PerkinElmer Envision at 620 nm.
Inhibition data for the test compound over a range of concentrations was plotted as percentage inhibition of the test compound (100%=maximum inhibition). IC50 values were determined after correcting for background [(sample read−mean of low control)/(mean of high control−mean of low control)] where by the low control is DMSO without stimulation and high control is DMSO with stimulation. The IC50 is defined as the concentration of test compound which produces 50% inhibition and was quantified using the 4 parameter logistic equation to fit the data.

Sequence of TNFα (P01375 77-233): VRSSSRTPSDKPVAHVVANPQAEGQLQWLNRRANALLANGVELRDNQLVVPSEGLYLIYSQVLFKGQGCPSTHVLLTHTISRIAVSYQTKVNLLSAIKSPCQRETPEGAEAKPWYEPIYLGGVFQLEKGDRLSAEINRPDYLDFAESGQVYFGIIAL

SMILES	pIC50
CC(C)(O)c1ncc(-c2cc3c(cc2F)nc2n3[C@@H](c3ccccc3OC(F)F)[C@H]3C[C@@H]23)cn1 (racemic) [Example 1, rac-2-(5-((1aR,8R,8aS)-8-(2-(difluoromethoxy)phenyl)-4-fluoro-1,1a,8,8a-tetrahydrobenzo[d]cyclopropa[3,4]pyrrolo[1,2-a]imidazol-5-yl)pyrimidin-2-yl) propan-2-ol]	> 6.00
CC(C)(O)c1ncc(-c2cc3c(cc2F)nc2n3[C@@H](c3ccccc3OC(F)F)[C@@H]3C[C@H]23)cn1 (racemic) [Example 20, rac-2-(5-((1aR,8S,8aS)-8-(2-(difluoromethoxy)phenyl)-4-fluoro-1,1a,8,8a-tetrahydrobenzo[d]cyclopropa[3,4]pyrrolo[1,2-a]imidazol-5-yl)pyrimidin-2-yl)propan-2-ol]	> 6.00
CC(C)(O)c1ncc(-c2cc3c(cc2F)nc2n3[C@@H](c3ccccc3OCc3ccccc3)[C@@H]3C[C@H]23)cn1 (racemic) [Example 25, rac-2-(5-((1aR,8S,8aS)-8-(2-(benzyloxy)phenyl)-4-fluoro-1,1a,8,8a-tetrahydrobenzo[d]cyclopropa[3,4]pyrrolo[1,2-a]imidazol-5-yl)pyrimidin-2-yl)propan-2-ol]	5.00 to 6.00
CC(C)(O)c1ncc(-c2cc3c(cc2F)nc2n3[C@@H](c3ccccc3OCc3ccccc3)[C@H]3C[C@@H]23)cn1 (racemic) [Example 26, rac-2-(5-((1aR,8R,8aS)-8-(2-(benzyloxy)phenyl)-4-fluoro-1,1a,8,8a-tetrahydrobenzo[d]cyclopropa[3,4]pyrrolo[1,2-a]imidazol-5-yl)pyrimidin-2-yl)propan-2-ol]	4.60 to 5.00
COc1ccc(-c2ccc3nc4n(c3c2)[C@@H](c2ccccc2)[C@H]2CNC[C@@H]42)cn1 (racemic) [Example 36, rac-(3aR,10S,10aS)-7-(6-methoxypyridin-3-yl)-10-phenyl-1,2,3,3a,10,10a-hexahydrobenzo[d]pyrrolo[3′,4′:3,4]pyrrolo[1,2-a]imidazole]	4.60 to 5.00
COc1ccc(-c2ccc3nc4n(c3c2)[C@@H](c2ccccc2)[C@H]2CN(C(=O)NC(C)(C)C)C[C@@H]42)cn1 (racemic) [Example 37, rac-(3aR,10S,10aS)—N-(tert-butyl)-7-(6-methoxypyridin-3-yl)-10-phenyl-3,3a,10,10a-tetrahydrobenzo[d]pyrrolo[3′,4′:3,4]pyrrolo[1,2-a]imidazole-2(1H)-carboxamide]	5.00 to 6.00
COc1ccc(-c2ccc3nc4n(c3c2)[C@@H](c2ccccc2)[C@H]2CN(C(C)=O)C[C@@H]42)cn1 (racemic) [Example 38, rac-1-((3aR,10S,10aS)-7-(6-methoxypyridin-3-yl)-10-phenyl-3,3a,10,10a-tetrahydrobenzo[d]pyrrolo[3′,4′:3,4]pyrrolo[1,2-a]imidazol-2(1H)-yl)ethan-1-one]	4.60 to 5.00
COc1ccc(-c2ccc3nc4n(c3c2)[C@@H](c2ccccc2)[C@H]2CN(C(=O)OC(C)(C)C)C[C@@H]42)cn1 (racemic) [Example 40, rac-tert-butyl (3aR,10S,10aS)-7-(6-methoxypyridin-3-yl)-10-phenyl-3,3a,10,10a-tetrahydrobenzo[d]pyrrolo[3′,4′:3,4]pyrrolo[1,2-a]imidazole-2(1H)-carboxylate]	4.60 to 5.00
COc1ccc(-c2ccc3nc4n(c3c2)[C@@H](c2ccccc2)[C@H]2CN(C(=O)c3ccccc3)C[C@@H]42)cn1 (racemic) [Example 41, rac-((3aR,10S,10aS)-7-(6-methoxypyridin-3-yl)-10-phenyl-3,3a,10,10a-tetrahydrobenzo[d]pyrrolo[3′,4′:3,4]pyrrolo[1,2-a]imidazol-2(1H)-yl)(phenyl)methanone]	4.60 to 5.00
CC(C)(O)c1ncc(-c2cc3c(cc2F)nc2n3[C@@H](c3ccccc3OC(F)F)[C@H]3C[C@@H]23)cn1 [Example 2, 2-(5-((1aR,8R,8aS)-8-(2-(difluoromethoxy)phenyl)-4-fluoro-1,1a,8,8a-tetrahydrobenzo[d]cyclopropa[3,4]pyrrolo[1,2-a]imidazol-5-yl)pyrimidin-2-yl)propan-2-ol]	> 6.00
NC(=O)c1ccc(-c2cc3c(cc2F)nc2n3[C@@H](c3ccccc3OC(F)F)[C@H]3C[C@@H]23)cn1 [Example 7, 5-((1aR,8R,8aS)-8-(2-(difluoromethoxy)phenyl)-4-fluoro-1,1a,8,8a-tetrahydrobenzo[d]cyclopropa[3,4]pyrrolo[1,2-a]imidazol-5-yl)picolinamide]	> 6.00

Results, then the compound that gave them:

pIC50	SMILES
4.60 to 5.00	Fc1cc2nc3n(c2cc1Br)[C@@H](c1ccccc1OC(F)F)[C@@H]1C[C@H]31 (racemic) [Example 11, rac-(1aR,8S,8aS)-5-bromo-8-(2-(difluoromethoxy)phenyl)-4-fluoro-1,1a,8,8a-tetrahydrobenzo[d]cyclopropa[3,4]pyrrolo[1,2-a]imidazole]
5.00 to 6.00	CC(C)(O)c1ncc(-c2cc3c(cc2F)nc2n3[C@@H](c3ccccc3Oc3ccccc3)[C@@H]3C[C@H]23)cn1 (racemic) [Example 23, rac-2-(5-((1aR,8S,8aS)-4-fluoro-8-(2-phenoxyphenyl)-1,1a,8,8a-tetrahydrobenzo[d]cyclopropa[3,4]pyrrolo[1,2-a]imidazol-5-yl)pyrimidin-2-yl)propan-2-ol]
5.00 to 6.00	CC(C)(O)c1ncc(-c2cc3c(cc2F)nc2n3[C@@H](c3ccccc3Oc3ccccc3)[C@H]3C[C@@H]23)cn1 (racemic) [Example 24, rac-2-(5-((1aR,8R,8aS)-4-fluoro-8-(2-phenoxyphenyl)-1,1a,8,8a-tetrahydrobenzo[d]cyclopropa[3,4]pyrrolo[1,2-a]imidazol-5-yl)pyrimidin-2-yl)propan-2-ol]
5.00 to 6.00	CCNC(=O)N1C[C@H]2[C@@H](C1)c1nc3ccc(-c4ccc(OC)nc4)cc3n1[C@H]2c1ccccc1 (racemic) [Example 39, rac-(3aR,10S,10aS)—N-ethyl-7-(6-methoxypyridin-3-yl)-10-phenyl-3,3a,10,10a-tetrahydrobenzo[d]pyrrolo[3′,4′:3,4]pyrrolo[1,2-a]imidazole-2(1H)-carboxamide]
4.60 to 5.00	COc1ccc(-c2ccc3nc4n(c3c2)[C@@H](c2ccccc2)[C@H]2CC=CC[C@@H]42)cn1 (racemic) [Example 42, rac-(4aR,11R,11aS)-8-(6-methoxypyridin-3-yl)-1-phenyl-4,4a,11,11a-tetrahydro-1H-benzo[4,5]imidazo[2,1-a]isoindole]
4.60 to 5.00	CNC(=O)c1ccc(-c2ccc3nc4n(c3c2)[C@@H](c2cc(C)ccc2C)[C@H]2[C@H](c3ccccc3)[C@@H]42)cn1 (racemic) [Example 43, rac-5-((1R,1aS,8S,8aR)-8-(2,5-dimethylphenyl)-1-phenyl-1,1a,8,8a-tetrahydrobenzo[d]cyclopropa[3,4]pyrrolo[1,2-a]imidazol-5-yl)-N-methylpicolinamide]
> 6.00	CC(C)(O)c1ncc(-c2cc3c(cc2F)nc2n3[C@H](c3ccccc3OC(F)F)[C@H]3C[C@@H]23)cn1 (stereo in doubt) [Example 21, 2-(5-((1aR,8S,8aS)-8-(2-(difluoromethoxy)phenyl)-4-fluoro-1,1a,8,8a-tetrahydrobenzo[d]cyclopropa[3,4]pyrrolo[1,2-a]imidazol-5-yl)pyrimidin-2-yl)propan-2-ol]
> 6.00	CC(C)(O)c1ncc(-c2cc3c(cc2F)nc2n3[C@H](c3ccccc3OC(F)F)[C@@H]3C[C@H]23)cn1 [Example 3, 2-(5-((1aS,8S,8aR)-8-(2-(difluoromethoxy)phenyl)-4-fluoro-1,1a,8,8a-tetrahydrobenzo[d]cyclopropa[3,4]pyrrolo[1,2-a]imidazol-5-yl)pyrimidin-2-yl)propan-2-ol]
> 6.00	O=C(O)CN1CCN(c2ncc(-c3cc4c(cc3F)nc3n4[C@@H](c4ccccc4OC(F)F)[C@H]4C[C@@H]34)cn2)CC1 [Example 4, 2-(4-(5-((1aR,8R,8aS)-8-(2-(difluoromethoxy)phenyl)-4-fluoro-1,1a,8,8a-tetrahydrobenzo[d]cyclopropa[3,4]pyrrolo[1,2-a]imidazol-5-yl)pyrimidin-2-yl)piperazin-1-yl)acetic acid]
> 6.00	NS(=O)(=O)c1ccc(-c2cc3c(cc2F)nc2n3[C@@H](c3ccccc3OC(F)F)[C@H]3C[C@@H]23)cc1 [Example 5, 4-((1aR,8R,8aS)-8-(2-(difluoromethoxy)phenyl)-4-fluoro-1,1a,8,8a-tetrahydrobenzo[d]cyclopropa[3,4]pyrrolo[1,2-a]imidazol-5-yl)benzenesulfonamide]
> 6.00	Fc1cc2nc3n(c2cc1-c1cnc(N2CCOCC2)nc1)[C@@H](c1ccccc1OC(F)F)[C@H]1C[C@@H]31 [Example 6, 4-(5-((1aR,8R,8aS)-8-(2-(difluoromethoxy)phenyl)-4-fluoro-1,1a,8,8a-tetrahydrobenzo[d]cyclopropa[3,4]pyrrolo[1,2-a]imidazol-5-yl)pyrimidin-2-yl)morpholine]
